Test results from ChEMBL document CHEMBL3621197, “Design, synthesis, and preliminary bioactivity studies of substituted purine hydroxamic acid derivatives as novel histone deacetylase (HDAC) inhibitors” (Medchemcomm, 2014).

Legend:
[1] = molecular target: T1, Histone deacetylase (HDAC1 and HDAC2) (Homo sapiens, UniProt Q13547+Q92769); assay: Inhibition of HDAC1/HDAC2 isolated from human HeLa cells incubated for 30 mins by Color de Lys assay; format: cell-based
[2] = molecular target: T1, Histone deacetylase (HDAC1 and HDAC2); conditions: HeLa, at 5 µM
Description: Inhibition of HDAC1/HDAC2 isolated from human HeLa cells at 5 umol/L incubated for 30 mins by Color de Lys assay

MDA-MB-231 = assay: cells; format: functional, cell-based; conditions: Homo sapiens, MDA-MB-231, 48 h
Description: Cytotoxicity against human MDA-MB-231 cells assessed as inhibition of cell proliferation after 48 hrs by MTT assay

MCF7 = assay: cells; format: functional, cell-based; conditions: Homo sapiens, MCF7, 48 h
Description: Cytotoxicity against human MCF7 cells assessed as inhibition of cell proliferation after 48 hrs by MTT assay

cells [3] = format: functional, cell-based; conditions: Homo sapiens, KG-1, 48 h
Description: Cytotoxicity against human KG1 cells assessed as inhibition of cell proliferation after 48 hrs by MTT assay

PC-3 = assay: cells; format: functional, cell-based; conditions: Homo sapiens, PC-3, 48 h
Description: Cytotoxicity against human PC3 cells assessed as inhibition of cell proliferation after 48 hrs by MTT assay

A549 = assay: cells; format: functional, cell-based; conditions: Homo sapiens, A549, 48 h
Description: Cytotoxicity against human A549 cells assessed as inhibition of cell proliferation after 48 hrs by MTT assay

U-937 = assay: cells; format: functional, cell-based; conditions: Homo sapiens, U-937, 48 h
Description: Cytotoxicity against human U937 cells assessed as inhibition of cell proliferation after 48 hrs by MTT assay

HeLa = assay: cells; format: functional, cell-based; conditions: Homo sapiens, 48 h
Description: Cytotoxicity against human HeLa cells assessed as inhibition of cell proliferation after 48 hrs by MTT assay

cells [4] = format: functional, cell-based, ES2; conditions: Homo sapiens, ES-2, 48 h
Description: Cytotoxicity against human ES2 cells assessed as inhibition of cell proliferation after 48 hrs by MTT assay

Histone deacetylase 1 = Histone deacetylase 1 (Homo sapiens, UniProt Q13547); assay: Inhibition of recombinant full length human HDAC1 (1 to 482 amino acids) expressed in Baculovirus infected insect Sf9 cells incubated for 30 mins measured by fluorescence assay
[5] = molecular target: T2, Protein deacetylase HDAC6 (Homo sapiens, UniProt Q9UBN7); assay: Inhibition of recombinant full length human HDAC6 expressed in Baculovirus infected insect Sf9 cells incubated for 30 mins measured by fluorescence assay
T2 sequence (Q9UBN7 whole entry): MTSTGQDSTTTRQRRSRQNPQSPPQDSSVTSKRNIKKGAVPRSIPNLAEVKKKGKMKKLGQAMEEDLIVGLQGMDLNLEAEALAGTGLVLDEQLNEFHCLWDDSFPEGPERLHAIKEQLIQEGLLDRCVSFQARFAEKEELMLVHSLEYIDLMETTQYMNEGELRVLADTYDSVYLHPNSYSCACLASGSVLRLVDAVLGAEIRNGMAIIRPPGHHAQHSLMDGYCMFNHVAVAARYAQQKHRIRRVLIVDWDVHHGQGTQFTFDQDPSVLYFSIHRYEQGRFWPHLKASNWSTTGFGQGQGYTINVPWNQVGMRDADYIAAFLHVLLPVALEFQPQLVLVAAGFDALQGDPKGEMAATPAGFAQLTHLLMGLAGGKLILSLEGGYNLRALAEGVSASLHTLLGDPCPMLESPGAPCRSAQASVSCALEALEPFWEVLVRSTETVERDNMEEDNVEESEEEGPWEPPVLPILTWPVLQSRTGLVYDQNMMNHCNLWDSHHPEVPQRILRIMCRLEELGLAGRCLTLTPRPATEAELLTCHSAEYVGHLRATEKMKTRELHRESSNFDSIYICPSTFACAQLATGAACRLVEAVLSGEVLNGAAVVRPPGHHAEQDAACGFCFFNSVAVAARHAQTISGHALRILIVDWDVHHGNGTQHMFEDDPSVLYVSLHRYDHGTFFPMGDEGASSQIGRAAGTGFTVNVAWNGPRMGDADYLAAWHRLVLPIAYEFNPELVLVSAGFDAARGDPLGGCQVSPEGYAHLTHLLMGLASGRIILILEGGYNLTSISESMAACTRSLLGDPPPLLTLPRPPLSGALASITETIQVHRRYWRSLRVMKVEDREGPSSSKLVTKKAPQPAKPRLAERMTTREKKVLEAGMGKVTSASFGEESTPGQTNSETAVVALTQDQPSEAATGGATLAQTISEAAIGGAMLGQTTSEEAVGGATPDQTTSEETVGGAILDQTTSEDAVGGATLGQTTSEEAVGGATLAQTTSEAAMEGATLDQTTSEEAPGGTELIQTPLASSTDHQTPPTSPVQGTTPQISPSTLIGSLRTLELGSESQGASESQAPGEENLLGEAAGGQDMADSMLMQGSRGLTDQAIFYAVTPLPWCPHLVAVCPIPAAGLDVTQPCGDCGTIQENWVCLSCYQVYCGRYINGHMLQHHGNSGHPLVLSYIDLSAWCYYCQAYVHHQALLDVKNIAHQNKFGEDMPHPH

Histone deacetylase 8 = molecular target: T3, Histone deacetylase 8 (Homo sapiens, UniProt Q9BY41); assay: Inhibition of recombinant full length human HDAC8 expressed in Baculovirus infected insect Sf9 cells preincubated for 30 mins followed by substrate addition measured after 15 to 45 mins by luminescence assay
T3 sequence (Q9BY41 whole entry): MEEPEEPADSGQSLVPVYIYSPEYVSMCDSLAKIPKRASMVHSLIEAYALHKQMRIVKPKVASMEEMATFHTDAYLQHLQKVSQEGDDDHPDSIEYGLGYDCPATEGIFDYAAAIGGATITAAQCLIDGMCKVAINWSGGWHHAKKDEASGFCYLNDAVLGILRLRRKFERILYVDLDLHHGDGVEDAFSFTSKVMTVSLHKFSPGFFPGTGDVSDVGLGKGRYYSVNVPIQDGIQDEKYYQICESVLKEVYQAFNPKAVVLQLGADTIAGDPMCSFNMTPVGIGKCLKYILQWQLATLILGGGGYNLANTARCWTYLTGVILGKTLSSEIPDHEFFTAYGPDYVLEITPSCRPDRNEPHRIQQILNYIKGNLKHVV

Histone deacetylase 1, sequence (Q13547 whole entry, the tested form may be a part): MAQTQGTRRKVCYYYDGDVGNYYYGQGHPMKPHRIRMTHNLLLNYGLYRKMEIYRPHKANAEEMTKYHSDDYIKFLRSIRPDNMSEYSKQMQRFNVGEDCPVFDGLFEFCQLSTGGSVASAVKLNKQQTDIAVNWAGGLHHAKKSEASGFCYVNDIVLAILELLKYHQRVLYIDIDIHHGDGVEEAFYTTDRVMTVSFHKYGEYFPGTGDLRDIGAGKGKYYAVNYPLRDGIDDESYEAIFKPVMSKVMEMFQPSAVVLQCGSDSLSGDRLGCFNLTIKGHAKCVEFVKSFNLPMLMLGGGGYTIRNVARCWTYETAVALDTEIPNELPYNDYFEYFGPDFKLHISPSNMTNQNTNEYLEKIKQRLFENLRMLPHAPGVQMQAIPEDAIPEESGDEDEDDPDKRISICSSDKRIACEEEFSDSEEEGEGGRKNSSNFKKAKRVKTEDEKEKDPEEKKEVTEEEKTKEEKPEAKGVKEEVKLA
T1 sequence (Q13547 whole entry, looked up): as the sequence (Q13547 whole entry, the tested form may be a part) above
T1 sequence (Q92769 whole entry, looked up): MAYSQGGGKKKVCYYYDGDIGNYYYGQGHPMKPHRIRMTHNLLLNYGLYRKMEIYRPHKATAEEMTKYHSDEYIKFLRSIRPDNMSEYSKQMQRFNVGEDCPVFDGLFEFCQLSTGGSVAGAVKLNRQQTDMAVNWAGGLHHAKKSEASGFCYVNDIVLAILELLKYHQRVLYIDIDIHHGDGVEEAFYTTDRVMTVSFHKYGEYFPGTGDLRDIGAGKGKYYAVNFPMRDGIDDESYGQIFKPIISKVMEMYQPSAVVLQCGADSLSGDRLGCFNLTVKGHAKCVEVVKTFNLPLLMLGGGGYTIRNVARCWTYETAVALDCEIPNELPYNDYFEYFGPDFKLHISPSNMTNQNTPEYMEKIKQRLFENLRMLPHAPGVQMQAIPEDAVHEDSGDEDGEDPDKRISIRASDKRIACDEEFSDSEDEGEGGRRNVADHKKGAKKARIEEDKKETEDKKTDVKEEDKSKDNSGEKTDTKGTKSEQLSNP

| SMILES | IC50 [1] [µM] | inhibition [2] [%] | IC50 (MDA-MB-231) [µM] | IC50 (MCF7) [µM] | IC50 (cells [3]) [µM] | also measured |
| --- | --- | --- | --- | --- | --- | --- |
| O=C(CCNC(=O)Cn1cnc2c(N3CCOCC3)nc(Nc3ccccc3)nc21)NO | > 5 | 56 |  |  |  |  |
| Nc1nc(N2CCOCC2)c2ncn(CC(=O)NCCCCCC(=O)NO)c2n1 | 4.53 | 53 | 41.3 | > 50 |  |  |
| O=C(Cc1ccc(NC(=O)Cn2cnc3c(N4CCOCC4)ncnc32)cc1)NO |  | 25 |  |  |  |  |
| O=C(CCCNC(=O)Cn1cnc2c(N3CCOCC3)ncnc21)NO |  | 15 |  |  |  |  |
| O=C(CCCCCNC(=O)Cn1cnc2c(Nc3ccccc3)nc(Nc3ccccc3)nc21)NO | 0.3 | 80 | 1.61 | 9.58 | 3.8 | IC50 (PC-3): 2.14 µM; IC50 (A549): 18 µM; IC50 (U-937): 4.07 µM; IC50 (HeLa): 9.08 µM; IC50 (cells [4]): 13.4 µM; IC50 (Histone deacetylase 1): 0.028 µM; IC50 [5]: 0.0038 µM; IC50 (Histone deacetylase 8): 0.2 µM |
| O=C(CCCCCCNC(=O)Cn1cnc2c(Nc3ccccc3)ncnc21)NO | 2.94 | 49 | 8.91 | > 50 | > 50 |  |
| O=C(CCCCCNC(=O)Cn1cnc2c(NCc3ccccc3)ncnc21)NO | 2.05 | 70 | 34.2 | > 50 | > 50 |  |
| Nc1nc(N2CCOCC2)c2ncn(CC(=O)NCCC(=O)NO)c2n1 |  | 20 |  |  |  |  |
| O=C(CCCCCNC(=O)Cn1cnc2c(N3CCOCC3)ncnc21)NO | > 5 | 49 |  |  |  |  |
| Nc1nc(N2CCOCC2)c2ncn(CC(=O)NCCCC(=O)NO)c2n1 |  | -1 |  |  |  |  |
| Nc1nc(N2CCOCC2)c2ncn(CC(=O)Nc3ccc(CC(=O)NO)cc3)c2n1 |  | 0 |  |  |  |  |
| O=C(CCCCCNC(=O)Cn1cnc2c(N3CCOCC3)nc(Nc3ccccc3)nc21)NO | 0.075 | 98 | 1.56 | 18.6 | 5.37 | IC50 (PC-3): 6.44 µM; IC50 (A549): 46.1 µM; IC50 (U-937): 6.5 µM; IC50 (HeLa): 18.2 µM; IC50 (cells [4]): 28 µM; IC50 (Histone deacetylase 1): 0.035 µM; IC50 [5]: 0.0026 µM; IC50 (Histone deacetylase 8): 0.15 µM |
| O=C(CCCNC(=O)Cn1cnc2c(N3CCOCC3)nc(Nc3ccccc3)nc21)NO | > 5 | 69 |  |  |  |  |
| O=C(CCCCNC(=O)Cn1cnc2c(Nc3ccccc3)nc(Nc3ccccc3)nc21)NO | 0.59 | 87 | 11.1 | > 50 | 34.7 |  |
| O=C(CCCCCCNC(=O)Cn1cnc2c(Nc3ccccc3)nc(Nc3ccccc3)nc21)NO | 0.51 | 95 | 1.55 | 9.04 | 2.88 | IC50 (PC-3): 4.26 µM; IC50 (A549): 10.1 µM; IC50 (U-937): 3.91 µM; IC50 (HeLa): 8.76 µM; IC50 (cells [4]): 8.95 µM; IC50 (Histone deacetylase 1): 0.063 µM; IC50 [5]: 0.0018 µM; IC50 (Histone deacetylase 8): 0.32 µM |

Further lines, with some results ahead:

| IC50 [1] [µM] | inhibition [2] [%] | IC50 (MDA-MB-231) [µM] | IC50 (MCF7) [µM] | IC50 (cells [3]) [µM] | SMILES | also measured |
| --- | --- | --- | --- | --- | --- | --- |
| 2.51 | 59 | > 50 | > 50 | > 50 | O=C(CCCCNC(=O)Cn1cnc2c(Nc3ccccc3)ncnc21)NO |  |
|  | 11 |  |  |  | O=C(CCCNC(=O)Cn1cnc2c(NCc3ccccc3)ncnc21)NO |  |
|  | 3 |  |  |  | O=C(CNC(=O)Cn1cnc2c(NCc3ccccc3)ncnc21)NO |  |
|  | 10 |  |  |  | CNc1ncnc2c1ncn2CC(=O)NCCC(=O)NO |  |
|  | 6 |  |  |  | CNc1ncnc2c1ncn2CC(=O)NCCCC(=O)NO |  |
|  | 3 |  |  |  | CNc1ncnc2c1ncn2CC(=O)NCC(=O)NO |  |
| 2.09 | 72 | 22.3 | > 50 | > 50 | O=C(CCCCCNC(=O)Cn1cnc2c(Nc3ccccc3)ncnc21)NO |  |
|  | 13 |  |  |  | O=C(CCNC(=O)Cn1cnc2c(NCc3ccccc3)ncnc21)NO |  |
|  | 3 |  |  |  | O=C(CCNC(=O)Cn1cnc2c(N3CCOCC3)ncnc21)NO |  |
